Data set [1] addresses T1, α4β7 RPMI8866/MAdCAM-1 adhesion (Homo sapiens, UniProt P13612+P26010).
T1 construct: CFSE-labelled RPMI 8866 cells were added to the plate coated with rhMAdCAM-1; host or cells: RPMI 8866
T1 sequence (P13612 34-1032): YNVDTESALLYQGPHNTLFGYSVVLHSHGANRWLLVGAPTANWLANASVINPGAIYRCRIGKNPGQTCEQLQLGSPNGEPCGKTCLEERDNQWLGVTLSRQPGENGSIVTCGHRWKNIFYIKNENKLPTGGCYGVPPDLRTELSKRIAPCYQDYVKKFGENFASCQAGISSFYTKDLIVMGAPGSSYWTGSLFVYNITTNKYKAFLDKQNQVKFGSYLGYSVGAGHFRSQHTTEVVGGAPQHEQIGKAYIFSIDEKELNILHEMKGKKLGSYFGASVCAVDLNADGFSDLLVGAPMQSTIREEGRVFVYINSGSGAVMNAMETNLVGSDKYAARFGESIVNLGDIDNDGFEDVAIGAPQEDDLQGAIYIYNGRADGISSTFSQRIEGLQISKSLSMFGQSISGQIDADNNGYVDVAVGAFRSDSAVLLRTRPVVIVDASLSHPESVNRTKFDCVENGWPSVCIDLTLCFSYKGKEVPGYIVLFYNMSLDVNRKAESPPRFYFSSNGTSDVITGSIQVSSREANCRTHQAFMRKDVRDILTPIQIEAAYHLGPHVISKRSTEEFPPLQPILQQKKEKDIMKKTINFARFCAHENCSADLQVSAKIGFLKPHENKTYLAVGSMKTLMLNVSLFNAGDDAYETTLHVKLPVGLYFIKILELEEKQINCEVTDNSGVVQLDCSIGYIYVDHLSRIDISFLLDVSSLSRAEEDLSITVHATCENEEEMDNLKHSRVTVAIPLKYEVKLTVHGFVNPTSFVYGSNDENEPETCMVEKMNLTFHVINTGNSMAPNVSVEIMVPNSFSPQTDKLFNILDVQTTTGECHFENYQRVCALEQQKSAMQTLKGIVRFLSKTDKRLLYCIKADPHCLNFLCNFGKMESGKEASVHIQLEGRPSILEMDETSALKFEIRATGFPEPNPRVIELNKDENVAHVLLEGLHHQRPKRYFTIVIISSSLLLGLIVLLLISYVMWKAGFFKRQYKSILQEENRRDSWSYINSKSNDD
T1 sequence (P26010 20-798): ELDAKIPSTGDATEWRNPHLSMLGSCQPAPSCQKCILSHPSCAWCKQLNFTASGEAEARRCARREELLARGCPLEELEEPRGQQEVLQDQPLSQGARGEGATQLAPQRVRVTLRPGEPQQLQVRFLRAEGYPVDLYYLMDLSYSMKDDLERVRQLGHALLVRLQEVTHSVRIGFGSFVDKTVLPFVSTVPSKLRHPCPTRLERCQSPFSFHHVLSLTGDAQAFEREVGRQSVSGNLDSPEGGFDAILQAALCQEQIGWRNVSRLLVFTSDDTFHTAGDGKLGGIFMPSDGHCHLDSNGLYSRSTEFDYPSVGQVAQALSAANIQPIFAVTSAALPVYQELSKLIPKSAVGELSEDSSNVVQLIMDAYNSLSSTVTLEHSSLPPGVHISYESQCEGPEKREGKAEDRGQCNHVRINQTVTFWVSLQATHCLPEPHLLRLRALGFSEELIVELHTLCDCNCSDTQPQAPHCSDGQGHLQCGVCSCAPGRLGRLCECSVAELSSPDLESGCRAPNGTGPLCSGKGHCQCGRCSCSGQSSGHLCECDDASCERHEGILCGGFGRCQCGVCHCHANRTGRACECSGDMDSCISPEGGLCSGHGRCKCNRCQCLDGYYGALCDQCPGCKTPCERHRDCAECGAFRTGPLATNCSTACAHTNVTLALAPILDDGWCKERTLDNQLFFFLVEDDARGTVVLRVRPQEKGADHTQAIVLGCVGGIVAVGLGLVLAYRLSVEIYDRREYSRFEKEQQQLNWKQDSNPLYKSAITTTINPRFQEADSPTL
Briefly: Integrin α4β7-MAdCAM cell adhesion assay, RPMI8866 cells (Example 7). Format: cell-based.
Source text: The cells were pelleted by centrifugation and resuspended in fresh pre-warmed complete culture medium and the cells were counted. […]

Data set [2] deals with T2, α4β1 RAMOS/VCAM-1 adhesion (Homo sapiens, UniProt P05556+P13612).
T2 construct: host or cells: RAMOS
T2 sequence (P05556 21-798, one chain of several): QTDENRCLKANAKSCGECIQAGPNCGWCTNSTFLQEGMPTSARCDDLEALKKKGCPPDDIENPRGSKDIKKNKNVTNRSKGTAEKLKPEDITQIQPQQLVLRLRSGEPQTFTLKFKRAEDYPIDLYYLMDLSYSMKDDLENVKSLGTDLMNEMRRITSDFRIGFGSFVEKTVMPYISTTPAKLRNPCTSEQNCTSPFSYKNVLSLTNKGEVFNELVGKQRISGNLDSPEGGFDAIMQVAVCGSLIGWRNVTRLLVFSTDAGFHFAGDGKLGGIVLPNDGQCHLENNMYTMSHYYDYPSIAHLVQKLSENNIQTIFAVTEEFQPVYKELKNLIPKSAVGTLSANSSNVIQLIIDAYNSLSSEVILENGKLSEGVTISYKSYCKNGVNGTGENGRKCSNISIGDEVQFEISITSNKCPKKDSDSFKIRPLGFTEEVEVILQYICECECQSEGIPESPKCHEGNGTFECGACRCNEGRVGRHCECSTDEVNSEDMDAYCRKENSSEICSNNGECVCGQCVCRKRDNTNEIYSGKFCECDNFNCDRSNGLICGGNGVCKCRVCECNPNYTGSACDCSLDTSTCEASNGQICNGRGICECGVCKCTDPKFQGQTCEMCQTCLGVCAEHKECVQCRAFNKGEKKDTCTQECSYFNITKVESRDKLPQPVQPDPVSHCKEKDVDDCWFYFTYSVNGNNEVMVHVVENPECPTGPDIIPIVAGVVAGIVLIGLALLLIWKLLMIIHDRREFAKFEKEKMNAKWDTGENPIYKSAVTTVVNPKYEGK
The data set can be described thus: Integrin α4β1-VCAM-1 cell adhesion assay, RAMOS cells (Example 7). Format: cell-based. The settings on record: rhVCAM-1 coated plate, DMEM binding buffer. The method, then: The human B lymphocyte cell line RAMOS was obtained from the Zealand Pharma culture collection.
Compound 1 and Comparative compounds 1 and 2 were reconstituted in DMSO to a concentration of 10 mM.
CFSE-labelled RPMI 8866 cells were added to the plate coated with rhMAdCAM-1 and CFSE-labelled RAMOS cells were added to the plate coated with rhVCAM-1.
After incubation, unbound cells were washed away. The cell plates were emptied by inverting and residues of liquid were removed by blotting on paper towel.

Data set [3] in a line: Pharmacokinetic characterisation in Beagle dogs, single s.c. injection, dose range (Example 6). Format: in vivo. The settings on record: male, plasma, dog, SC. An excerpt:
The dosing vehicle was PBS buffer, pH 7.

Each structure is given as a SMILES string. pIC50: −log10 of the molar value.

Consider `CC[C@H](C)[C@@H]1NC(=O)[C@H](CC(=O)O)NC(=O)[C@H](CC(C)C)NC(=O)c2ccc(-c3ccc(N4CCN(C(=O)c5ccccc5-c5ccccc5C(=O)N5CCN(c6ccc(-c7ccc8cc7CNC(=O)[C@@H]7CCCN7[C@H](C(=O)NC(C)(C)C)[C@H](C)NC(=O)[C@H]([C@@H](C)CC)NC(=O)[C@H](CC(=O)O)NC(=O)[C@H](CC(C)C)NC8=O)cc6)CC5)CC4)cc3)c(c2)CNC(=O)[C@@H]2CCCN2[C@H](C(=O)NC(C)(C)C)[C@H](C)NC1=O` [Compound 1], for which the negative-log IC50 (pIC50) was 8.14 in data set [1] (RPMI 8866 cells, rhMAdCAM-1 coated plate, DMEM binding buffer) and 6.94 in data set [2]. In addition, in data set [1] (α4β1 RAMOS/VCAM-1 IC50 versus α4β7 RPMI8866/MAdCAM-1 IC50), the Selectivity ratio is recorded as 16.0. The AUC was 2.46 µM·h in data set [3] (10 ug/kg); 5.68 µM·h in data set [3] (20 ug/kg); 11.6 µM·h in data set [3] (50 ug/kg); 58.6 µM·h in data set [3] (100 ug/kg); 72.5 µM·h in data set [3] (200 ug/kg); 158 µM·h in data set [3] (400 ug/kg).

Broadly, the pIC50 is the IC50 on a negative log10 scale, so that one unit is a factor of ten. By AUC is commonly meant concentration integrated over time.

(Values after patent US20250057912A1, “Compounds” (priority 2021, published 2025).)
